Biological target: T1, human MCHR1 (Homo sapiens, UniProt Q99705)
T1 construct: expressed in transfected cells; host or cells: CHO cell clone 57 (membrane fraction)
Assay: Human MCH receptor 1 (MCHR1) competitive binding assay, [125I]-MCH(4-19), CHO cell membrane fraction
Conditions: test compound 0.1 μM, human MCHR1-expressing CHO cell membrane, 25° C., 1 hr, read-out: Binding inhibition rate (0.1 μM)
Experimental: Determination of Human MCH Receptor 1 (MCHR1) Competitive Inhibitory Activity of Test Compound Using Binding Assay
Using human MCHR1(=SLC-1 receptor)-expressing CHO cell clone 57 and rat MCHR1-expressing CHO cell clone 44 described in WO01/82925, MCHR1-expressing CHO cellular membrane fractions were prepared by the following method. In phosphate buffered saline (pH 7.4) supplemented with 5 mM EDTA (ethylenediaminetetraacetic acid) were respectively suspended human and rat MCHR1-expressing CHO cells (1×10^8 cells) and centrifuged. Homogenate buffer (10 mL, 10 mM NaHCO3, 5 mM EDTA, pH 7.5, 0.5 mM PMSF (phenylmethylsulfonyl fluoride), 20 mg/L leupeptin, 4 mg/L E-64, 1 mg/L pepstatin A) was added to the pellets of the cells and, using Polytron Homogenizer, the mixture was homogenated. The supernatant obtained after centrifugation at 400×g for 10 min was further centrifuged at 100,000×g for 1 hr to give precipitate of the membrane fraction. The precipitate were suspended in 2 mL of assay buffer [20 mM Tris-HCl (pH 7.5), 5 mM EDTA, 0.5 mM PMSF, 20 mg/L leupeptin, 4 mg/L E-64, 1 mg/L pepstatin A]. The membrane fractions were suspended in assay buffer to a protein concentration of 2 mg/mL, and after dispensing, preserved at −80° C. and used upon thawing each time when in use.
The MCHR1 ligand binding inhibitory activity of the test compound was determined as follows. An MCHR1-expressing CHO cellular membrane fraction (175 μL) diluted with an assay buffer was dispensed to a 96 well polypropylene plate (3363, Corning). DMSO solution (2 μL), 100 μm cold MCH(1-19) diluted with DMSO solution (2 μL), or a test compound solution diluted with DMSO solution to various concentrations (2 μL) was added, and lastly, [^125I]-MCH(4-19) diluted with assay buffer (25 μL) was added to each well. The reaction mixture was reacted at 25° C. for 1 hr with stirring, and the reaction mixture was filtered by suction using a glass filter plate (GF/C, PerkinElmer). The filter was washed 3 times with a wash solution (300 μL, 50 mM Tris-HCl buffer, pH 7.5). The glass filter plate was dried, a liquid scintillator was added at 25 μL/well, and the residual radioactivity was measured by TopCount (PerkinElmer). The binding inhibition rate of the test compound was calculated by the following formula. Binding inhibition (%)=(radioactivity upon addition of test compound and hot MCH−radioactivity upon addition of cold MCH and hot MCH solution)/(radioactivity upon addition of DMSO solution and hot MCH−radioactivity upon addition of cold MCH and hot MCH solution)×100

T1 sequence (Q99705 whole entry): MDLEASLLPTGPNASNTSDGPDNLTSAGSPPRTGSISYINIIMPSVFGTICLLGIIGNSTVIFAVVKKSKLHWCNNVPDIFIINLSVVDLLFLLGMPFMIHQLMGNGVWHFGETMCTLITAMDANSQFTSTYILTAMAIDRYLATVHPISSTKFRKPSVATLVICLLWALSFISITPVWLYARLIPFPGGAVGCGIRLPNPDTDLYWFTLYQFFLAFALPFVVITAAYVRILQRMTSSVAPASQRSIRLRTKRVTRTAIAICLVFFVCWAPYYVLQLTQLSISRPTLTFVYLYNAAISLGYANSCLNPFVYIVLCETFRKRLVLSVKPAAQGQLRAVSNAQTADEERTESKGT

**Q.** With Cn1c(CNC2CCS(=O)(=O)CC2)cc2cc(NC(=O)c3ccc(OCC4CC4)cc3)ccc21 [Example 6, 4-(cyclopropylmethoxy)-N-(2-{[(1,1-dioxidotetrahydro-2H-thiopyran-4-yl)amino]methyl}-1-methyl-1H-indol-5-yl)benzamide] as the molecule, how does the inhibition at 0.1 µM read?
**A.** 82%

**Q.** For Cc1c(NC(=O)c2ccc(OC[C@@H]3CCCO3)cc2)ccc2cc(CN3CCCC3)[nH]c12 [Example 74, N-[7-methyl-2-(pyrrolidin-1-ylmethyl)-1H-indol-6-yl]-4-[(2S)-tetrahydrofuran-2-ylmethoxy]benzamide], which inhibition at 0.1 µM is on record?
**A.** 91%

**Q.** With Cc1c(NC(=O)c2ccc(OCC3CC3)cc2)ccc2cc(CNCC(C)(C)O)[nH]c12 [Example 63, 4-(cyclopropylmethoxy)-N-(2-{[(2-hydroxy-2-methylpropyl)amino]methyl}-7-methyl-1H-indol-6-yl)benzamide] as the molecule, how does the inhibition at 0.1 µM read?
**A.** 98%

**Q.** For Cc1c(NC(=O)c2ccc(OCC3CC3)cc2)ccc2cc(CNCC(C)(C)O)n(C)c12 [Example 78, 4-(cyclopropylmethoxy)-N-(2-{[(2-hydroxy-2-methylpropyl)amino]methyl}-1,7-dimethyl-1H-indol-6-yl)benzamide], which inhibition at 0.1 µM is on record?
**A.** 91%

**Q.** For Cn1c(CN[C@H]2CC[C@](C)(O)CC2)cc2cc(NC(=O)c3ccc(OCC4CC4)cc3)ccc21 [Example 12, 4-(cyclopropylmethoxy)-N-(2-{[(trans-4-hydroxy-4-methylcyclohexyl)amino]methyl}-1-methyl-1H-indol-5-yl)benzamide], which inhibition at 0.1 µM is on record?
**A.** 98%

System: not given
Assay: not given
Conditions: not given

**Q.** For Cn1c(CNC2CCS(=O)(=O)CC2)cc2cc(NC(=O)c3ccc(OCC4CC4)cc3)ccc21 [Example 6, 4-(cyclopropylmethoxy)-N-(2-{[(1,1-dioxidotetrahydro-2H-thiopyran-4-yl)amino]methyl}-1-methyl-1H-indol-5-yl)benzamide], which melting point is on record?
**A.** 200 to 201 °C

**Q.** For Cc1c(NC(=O)c2ccc(OC[C@@H]3CCCO3)cc2)ccc2cc(CN3CCCC3)[nH]c12 [Example 74, N-[7-methyl-2-(pyrrolidin-1-ylmethyl)-1H-indol-6-yl]-4-[(2S)-tetrahydrofuran-2-ylmethoxy]benzamide], which melting point is on record?
**A.** 172 to 173 °C

**Q.** For Cc1c(NC(=O)c2ccc(OCC3CC3)cc2)ccc2cc(CNCC(C)(C)O)[nH]c12 [Example 63, 4-(cyclopropylmethoxy)-N-(2-{[(2-hydroxy-2-methylpropyl)amino]methyl}-7-methyl-1H-indol-6-yl)benzamide], which melting point is on record?
**A.** 170 °C

**Q.** With Cc1c(NC(=O)c2ccc(OCC3CC3)cc2)ccc2cc(CNCC(C)(C)O)n(C)c12 [Example 78, 4-(cyclopropylmethoxy)-N-(2-{[(2-hydroxy-2-methylpropyl)amino]methyl}-1,7-dimethyl-1H-indol-6-yl)benzamide] as the molecule, how does the melting point read?
**A.** 180 °C

**Q.** For Cc1c(CN[C@H]2CC[C@](C)(O)CC2)n(C)c2ccc(NC(=O)c3ccc(OC[C@@H]4CCCO4)cc3)cc12 [Example 38, N-(2-{[(trans-4-hydroxy-4-methylcyclohexyl)amino]methyl}-1,3-dimethyl-1H-indol-5-yl)-4-[(2S)-tetrahydrofuran-2-ylmethoxy]benzamide], which melting point is on record?
**A.** 172 to 173 °C

**Q.** Which melting point does the source give for Cc1c(NC(=O)c2ccc(OCC3CC3)cc2)ccc2cc(CNCC(C)(C)C)[nH]c12 [Example 65, 4-(cyclopropylmethoxy)-N-(2-{[(2,2-dimethylpropyl)amino]methyl}-7-methyl-1H-indol-6-yl)benzamide] here?
**A.** 199 °C

**Q.** With Cc1c(NC(=O)c2ccc(OCC3CC3)cc2)ccc2cc(CN[C@H]3CC[C@](C)(O)CC3)n(C)c12 [Example 79, 4-(cyclopropylmethoxy)-N-(2-{[(trans-4-hydroxy-4-methylcyclohexyl)amino]methyl}-1,7-dimethyl-1H-indol-6-yl)benzamide] as the molecule, how does the melting point read?
**A.** 167 °C

**Q.** For Cc1c(NC(=O)c2ccc(OC[C@@H]3CCCO3)cc2F)ccc2cc(CNCC(C)(C)O)[nH]c12 [Example 76, 2-fluoro-N-(2-{[(2-hydroxy-2-methylpropyl)amino]methyl}-7-methyl-1H-indol-6-yl)-4-[(2S)-tetrahydrofuran-2-ylmethoxy]benzamide], which melting point is on record?
**A.** 148 to 149 °C

**Q.** Which melting point does the source give for Cc1c(CNCC(C)(C)C)n(C)c2ccc(NC(=O)c3ccc(OCC4CC4)cc3)cc12 [Example 41, 4-(cyclopropylmethoxy)-N-(2-{[(2,2-dimethylpropyl)amino]methyl}-1,3-dimethyl-1H-indol-5-yl)benzamide] here?
**A.** 169 to 170 °C

**Q.** Which melting point does the source give for Cc1c(NC(=O)c2ccc(OCC3CC3)cc2)ccc2[nH]c(CNCC3CCOCC3)cc12 [Example 43, 4-(cyclopropylmethoxy)-N-(4-methyl-2-{[(tetrahydro-2H-pyran-4-ylmethyl)amino]methyl}-1H-indol-5-yl)benzamide] here?
**A.** 181 to 182 °C

**Q.** For CC(C)CNCc1cc2cc(NC(=O)c3ccc(OC[C@@H]4CCCO4)cc3)ccc2n1C [Example 16, N-(1-methyl-2-{[(2-methylpropyl)amino]methyl}-1H-indol-5-yl)-4-[(2S)-tetrahydrofuran-2-ylmethoxy]benzamide], which melting point is on record?
**A.** 132 to 133 °C

**Q.** Which melting point does the source give for Cc1c(NC(=O)c2ccc(OC[C@@H]3CCCO3)cc2F)ccc2cc(CNCC(C)(C)O)n(C)c12 [Example 89, 2-fluoro-N-(2-{[(2-hydroxy-2-methylpropyl)amino]methyl}-1,7-dimethyl-1H-indol-6-yl)-4-[(2S)-tetrahydrofuran-2-ylmethoxy]benzamide] here?
**A.** 132 to 133 °C

**Q.** With Cn1c(CNCC(C)(C)S(C)(=O)=O)cc2cc(NC(=O)c3ccc(OCC4CC4)cc3)ccc21 [Example 7, 4-(cyclopropylmethoxy)-N-[1-methyl-2-({[2-methyl-2-(methylsulfonyl)propyl]amino}methyl)-1H-indol-5-yl]benzamide] as the molecule, how does the melting point read?
**A.** 168 to 169 °C

**Q.** With Cc1c(NC(=O)c2ccc(OC[C@@H]3CCCO3)cc2)ccc2cc(CNC3CCCC3)[nH]c12 [Example 73, N-{2-[(cyclopentylamino)methyl]-7-methyl-1H-indol-6-yl}-4-[(2S)-tetrahydrofuran-2-ylmethoxy]benzamide] as the molecule, how does the melting point read?
**A.** 159 to 163 °C

**Q.** For Cn1c(CN[C@H]2CC[C@](C)(O)CC2)cc2cc(NC(=O)c3ccc(OC[C@@H]4CCCO4)cc3F)ccc21 [Example 28, 2-fluoro-N-(2-{[(trans-4-hydroxy-4-methylcyclohexyl)amino]methyl}-1-methyl-1H-indol-5-yl)-4-[(2S)-tetrahydrofuran-2-ylmethoxy]benzamide], which melting point is on record?
**A.** 138 to 139 °C

**Q.** For Cc1c(NC(=O)c2ccc(OC[C@@H]3CCCO3)cc2)ccc2cc(CNCC(C)(C)C)n(C)c12 [Example 81, N-(2-{[(2,2-dimethylpropyl)amino]methyl}-1,7-dimethyl-1H-indol-6-yl)-4-[(2S)-tetrahydrofuran-2-ylmethoxy]benzamide], which melting point is on record?
**A.** 201 °C

**Q.** With Cc1c(NC(=O)c2ccc(OCC3CC3)cc2)ccc2cc(CN3CCC(C)(O)CC3)n(C)c12 [Example 80, 4-(cyclopropylmethoxy)-N-{2-[(4-hydroxy-4-methylpiperidin-1-yl)methyl]-1,7-dimethyl-1H-indol-6-yl}benzamide] as the molecule, how does the melting point read?
**A.** 152 to 155 °C

**Q.** With Cc1c(NC(=O)c2ccc(C#CC3(O)CC3)cc2)ccc2cc(CNCC(C)C)n(C)c12 [Example 90, N-(1,7-dimethyl-2-{[(2-methylpropyl)amino]methyl}-1H-indol-6-yl)-4-[(1-hydroxycyclopropyl)ethynyl]benzamide] as the molecule, how does the melting point read?
**A.** 186 °C

**Q.** Which melting point does the source give for Cc1c(CNCC2CCOCC2)n(C)c2c(F)c(NC(=O)c3ccc(OC[C@@H]4CCCO4)cc3)ccc12 [Example 113, N-(7-fluoro-1,3-dimethyl-2-{[(tetrahydro-2H-pyran-4-ylmethyl)amino]methyl}-1H-indol-6-yl)-4-[(2S)-tetrahydrofuran-2-ylmethoxy]benzamide] here?
**A.** 132 to 134 °C

**Q.** Which melting point does the source give for Cc1c(NC(=O)c2ccc(OC[C@@H]3CCCO3)cc2)ccc2c1cc(CNCC(C)C)n2C [Example 54, N-(1,4-dimethyl-2-{[(2-methylpropyl)amino]methyl}-1H-indol-5-yl)-4-[(2S)-tetrahydrofuran-2-ylmethoxy]benzamide] here?
**A.** 162 °C

**Q.** Which melting point does the source give for Cn1c(CNCC2CCOCC2)cc2cc(NC(=O)c3ccc(OCC4CCOC4)cc3)ccc21 (centres unmarked) [Example 23, N-(1-methyl-2-{[(tetrahydro-2H-pyran-4-ylmethyl)amino]methyl}-1H-indol-5-yl)-4-(tetrahydrofuran-3-ylmethoxy)benzamide] here?
**A.** 153 to 154 °C

**Q.** For Cc1c(CNCC(C)C)n(C)c2ccc(NC(=O)c3ccc(OCC4CC4)cc3)cc12 [Example 39, 4-(cyclopropylmethoxy)-N-(2-{[(2-methylpropyl)amino]methyl}-1,3-dimethyl-1H-indol-5-yl)benzamide], which melting point is on record?
**A.** 142 to 143 °C

**Q.** For Cc1c(NC(=O)c2ccc(OC[C@@H]3CCCO3)cc2)ccc2c1cc(CNC1CCCC1)n2C [Example 56, N-{2-[(cyclopentylamino)methyl]-1,4-dimethyl-1H-indol-5-yl}-4-[(2S)-tetrahydrofuran-2-ylmethoxy]benzamide], which melting point is on record?
**A.** 189 °C

**Q.** Which melting point does the source give for Cc1c(CNCC(C)(C)O)[nH]c2c(C)c(NC(=O)c3ccc(OC[C@@H]4CCCO4)cc3F)ccc12 [Example 101, 2-fluoro-N-(2-{[(2-hydroxy-2-methylpropyl)amino]methyl}-3,7-dimethyl-1H-indol-6-yl)-4-[(2S)-tetrahydrofuran-2-ylmethoxy]benzamide] here?
**A.** 151 to 152 °C
